Laboratory results: patent US20260130925A1, “METHODS FOR TREATING CANCER” (Genesis Molecular AI, Inc., priority 2022, published 2026)

Target: T1, PI3Kα H1047R in T47D cells (Homo sapiens, UniProt P42336, H1047R)
T1 construct: endogenous in cells; host or cells: T47D
Assay: PI3Kα cellular assay: T47D pAKT S473 HTRF
Format: cell-based
Conditions: for T47D pAKT S473 HTRF IC50 (H1047R): T47D (H1047R) selectivity over SKBR3 (WT): T47D (H1047R) versus SKBR3 (WT) cells; for IC50: T47D cells (H1047R), serum starved, 1 hr compound, 20 ng/ml EGF 10 min
Method: PI3Kα cellular assay experimental procedure: SKBR3 or T47D cells are seeded in DMEM containing 10% FBS at 25 k cells/well into 96-well cell culture format. Cells are incubated overnight at 37° C. in a 5% CO2 incubator and the following day cell media is aspirated, adherent cells are washed 1× with room temperature PBS prior to serum-free media application. Cells are returned to 37° C. 5% CO2 incubator and incubated a further 16 hrs. Compounds are added to serum starved adherent cells with a top dose of 10,000 nM and 3× multiple dose reductions for a minimum dose of 0.5 nM diluted in DMSO. Cell/compound incubation continues for 1 hr in a 37° C., 5% CO2 incubator prior to 10 minute PIK3CA stimulation with 20 ng/ml EGF. Cells treated with 0.1% DMSO and 20 ng/mL EGF are employed as negative control, cells treated with 10 uM Alpelisib and 20 ng/mL EGF are employed as a positive control. After 10 mins, plates are removed from incubator and cells are lysed with buffer and shaking 45 minutes. 20 μL of lysate is transferred to an opti-384 plate and 2.5 μl of Phospho-AKT d2 antibody with 2.5 μl of Phospho-AKT Eu Cryptate solution in the detection buffer are added to each well. 384 well plate is left overnight at room temperature before reading HTRF on an Envision plate reader.

T1 sequence (P42336 whole entry H1047R): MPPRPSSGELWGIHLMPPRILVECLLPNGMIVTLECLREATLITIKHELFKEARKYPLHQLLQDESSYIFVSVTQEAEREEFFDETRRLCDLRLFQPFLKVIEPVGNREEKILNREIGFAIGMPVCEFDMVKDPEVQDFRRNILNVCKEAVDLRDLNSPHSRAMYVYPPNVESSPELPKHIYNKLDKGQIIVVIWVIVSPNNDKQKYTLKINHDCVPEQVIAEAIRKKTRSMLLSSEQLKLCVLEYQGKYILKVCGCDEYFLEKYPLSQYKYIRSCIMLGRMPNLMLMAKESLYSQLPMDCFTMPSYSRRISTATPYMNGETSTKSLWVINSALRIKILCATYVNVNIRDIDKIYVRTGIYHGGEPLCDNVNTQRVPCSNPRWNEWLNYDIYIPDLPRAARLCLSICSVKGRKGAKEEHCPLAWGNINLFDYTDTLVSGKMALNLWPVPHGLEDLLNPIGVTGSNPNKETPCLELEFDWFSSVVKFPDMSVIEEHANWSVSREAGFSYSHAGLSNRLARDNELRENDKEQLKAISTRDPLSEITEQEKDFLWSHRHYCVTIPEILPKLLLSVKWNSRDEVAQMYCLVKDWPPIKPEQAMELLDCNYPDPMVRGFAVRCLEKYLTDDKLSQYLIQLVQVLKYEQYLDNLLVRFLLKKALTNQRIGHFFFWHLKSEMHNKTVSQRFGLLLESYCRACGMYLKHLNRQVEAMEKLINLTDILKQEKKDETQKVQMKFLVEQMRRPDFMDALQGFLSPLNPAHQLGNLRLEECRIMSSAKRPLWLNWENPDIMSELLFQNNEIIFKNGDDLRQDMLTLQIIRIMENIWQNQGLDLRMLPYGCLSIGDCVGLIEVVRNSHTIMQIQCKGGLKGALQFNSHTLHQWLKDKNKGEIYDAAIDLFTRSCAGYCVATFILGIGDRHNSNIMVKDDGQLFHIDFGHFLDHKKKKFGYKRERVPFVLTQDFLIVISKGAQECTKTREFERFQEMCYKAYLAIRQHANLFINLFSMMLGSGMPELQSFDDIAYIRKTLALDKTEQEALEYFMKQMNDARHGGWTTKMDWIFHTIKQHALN
T1 sequence (P27986 whole entry partner): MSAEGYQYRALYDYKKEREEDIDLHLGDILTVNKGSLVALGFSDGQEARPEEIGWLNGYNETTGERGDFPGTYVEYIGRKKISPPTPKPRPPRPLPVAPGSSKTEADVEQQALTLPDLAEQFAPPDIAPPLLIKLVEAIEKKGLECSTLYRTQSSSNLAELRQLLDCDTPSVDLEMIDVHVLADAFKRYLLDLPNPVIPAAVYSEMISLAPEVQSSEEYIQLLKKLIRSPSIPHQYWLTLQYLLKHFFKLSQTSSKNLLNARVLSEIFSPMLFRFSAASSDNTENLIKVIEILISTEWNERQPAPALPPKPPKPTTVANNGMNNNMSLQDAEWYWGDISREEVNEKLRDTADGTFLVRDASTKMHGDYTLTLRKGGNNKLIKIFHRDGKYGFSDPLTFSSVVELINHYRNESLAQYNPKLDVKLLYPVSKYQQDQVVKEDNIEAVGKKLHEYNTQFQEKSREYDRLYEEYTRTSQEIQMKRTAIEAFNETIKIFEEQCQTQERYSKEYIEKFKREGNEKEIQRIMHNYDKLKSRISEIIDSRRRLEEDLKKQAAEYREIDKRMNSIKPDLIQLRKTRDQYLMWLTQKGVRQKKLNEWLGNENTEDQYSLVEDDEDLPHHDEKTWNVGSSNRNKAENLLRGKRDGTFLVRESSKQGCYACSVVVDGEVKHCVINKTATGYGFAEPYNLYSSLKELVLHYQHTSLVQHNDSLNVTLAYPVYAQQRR

SMILES	T47D pAKT S473 HTRF IC50 (H1047R): T47D (H1047R) selectivity over SKBR3 (WT)	IC50 [nM]
Cc1cc([C@H](C)Nc2ccccc2C(=O)O)c2nc(N3CCC(C)(C)CC3)nc(N)c2c1 [Compound 1]	C (C denotes ≤5-fold)	≥ 2000
Cc1cc([C@@H](C)Nc2ccccc2C(=O)O)c2nc(N3CCC(C)(C)CC3)nc(N)c2c1 [Compound 2]	C (C denotes ≤5-fold)	≥ 2000
Cc1cc(C(C)Nc2ccccc2C(=O)O)c2nc(N3CCC(C)(C)CC3)nc(N)c2c1 (stereo not drawn) [Compound 3]	C (C denotes ≤5-fold)	≥ 2000
Cc1cc([C@@H](C)Nc2ccccc2C(=O)O)c2nc(N3Cc4ccccc4C3)[nH]c(=O)c2c1 [Compound 4]	C (C denotes ≤5-fold)	≥ 2000
Cc1cc(C(C)Nc2ccccc2C(=O)O)c2nc(N3Cc4ccccc4C3)[nH]c(=O)c2c1 (stereo not drawn) [Compound 6]	C (C denotes ≤5-fold)	≥ 2000
Cc1cc([C@H](C)Nc2ccccc2C(=O)O)c2nc(N3CCC(C)(C)CC3)ncc2c1 [Compound 7]	C (C denotes ≤5-fold)	≥ 2000
Cc1cc(C(C)Nc2ccccc2C(=O)O)c2nc(-c3ccncc3)nc(O)c2c1 (stereo not drawn) [Compound 9, 2-((1-(4-hydroxy-6-methyl-2-(pyridin-4-yl)quinazolin-8-yl)ethyl)amino)benzoic acid]	B (B denotes 20-fold≥value>5-fold)	< 750
Cc1cc([C@H](C)Nc2ccccc2C(=O)O)c2nc(N3CCC(C)(C)CC3)nc(O)c2c1 [Compound 11]	B (B denotes 20-fold≥value>5-fold)	750 to 2000
Cc1cc([C@@H](C)Nc2ccccc2C(=O)O)c2nc(N3CCC(C)(C)CC3)nc(O)c2c1 [Compound 12]	C (C denotes ≤5-fold)	≥ 2000
Cc1cc([C@H](C)Nc2ccccc2C(=O)O)c2[nH]c(N3CCOCC3)nc(=O)c2c1 [Compound 17]	B (B denotes 20-fold≥value>5-fold)	< 750
Cc1cc([C@@H](C)Nc2ccccc2C(=O)O)c2[nH]c(N3CCOCC3)nc(=O)c2c1 [Compound 18]	C (C denotes ≤5-fold)	≥ 2000
Cc1cc(C(C)Nc2ccccc2C(=O)O)c2nc(N3CCC(C)(C)CC3)nc(NC(=O)CCl)c2c1 (stereo not drawn) [Compound 21]	C (C denotes ≤5-fold)	≥ 2000
Cc1cc(C(C)Nc2ccccc2C(=O)O)c2nc(N3CCC(C)(C)CC3)nc(C(N)=O)c2c1 (stereo not drawn) [Compound 23]	C (C denotes ≤5-fold)	≥ 2000
Cc1cc(C(C)Nc2ccccc2C(=O)O)c2nc(N3Cc4ccccc4C3)nc(C(N)=O)c2c1 (stereo not drawn) [Compound 24]	A (A denotes >20-fold)	< 750
Cc1cc(C(C)Nc2ccccc2C(=O)O)c2nc(N3Cc4ccccc4C3)ccc2c1 (stereo not drawn) [Compound 30]	B (B denotes 20-fold≥value>5-fold)	750 to 2000
Cc1cc([C@@H](C)Nc2ccccc2C(=O)O)c2nc(N3Cc4ccccc4C3)ncc2c1 [Compound 35]	C (C denotes ≤5-fold)	≥ 2000
Cc1cc([C@H](C)Nc2ccccc2C(=O)O)c2nc(N3Cc4ccccc4C3)ncc2c1 [Compound 36]	B (B denotes 20-fold≥value>5-fold)	750 to 2000
Cc1cc([C@H](C)Nc2ccccc2C(=O)O)c2nc(-c3ccc(F)cc3)n(C)c(=O)c2c1 [Compound 39]	C (C denotes ≤5-fold)	≥ 2000
Cc1cc(C(C)Nc2ccccc2C(=O)O)c2cc(N3Cc4ccccc4C3)nc(C#N)c2c1 (stereo not drawn) [Compound 46]	C (C denotes ≤5-fold)	≥ 2000
Cc1cc(C(C)Nc2ccccc2C(=O)O)c2cc(N3Cc4ccccc4C3)ncc2c1 (stereo not drawn) [Compound 59]	B (B denotes 20-fold≥value>5-fold)	750 to 2000
Cc1cc(C(C)Nc2ccccc2C(=O)O)c2nc(N3CCC(C)(C)CC3)nc(C#N)c2c1 (stereo not drawn) [Compound 61]	A (A denotes >20-fold)	< 750

SMILES	T47D pAKT S473 HTRF IC50 (H1047R): T47D (H1047R) selectivity over SKBR3 (WT)	IC50 [nM]
Cc1cc(C(C)Nc2ccccc2C(=O)O)c2nc(N3Cc4ccccc4C3)nc(N3CC(O)C3)c2c1 (stereo not drawn) [Compound 63, 2-((1-(4-(3-hydroxyazetidin-1-yl)-2-(isoindolin-2-yl)-6-methylquinazolin-8-yl)ethyl)amino)benzoic acid]	B (B denotes 20-fold≥value>5-fold)	750 to 2000
Cc1cc(C(C)Nc2ccccc2C(=O)O)c2nc(N3Cc4ccccc4C3)nc(NC3CC3O)c2c1 (stereo not drawn) [Compound 65]	B (B denotes 20-fold≥value>5-fold)	750 to 2000
Cc1cc(C(C)Nc2ccccc2C(=O)O)c2nc(N3Cc4ccccc4C3)nc(C3CC3O)c2c1 (stereo not drawn) [Compound 69]	B (B denotes 20-fold≥value>5-fold)	750 to 2000
Cc1cc(C(C)Nc2ccccc2C(=O)O)c2nc(N3Cc4ccccc4C3)nc(NC3COC3)c2c1 (stereo not drawn) [Compound 71]	C (C denotes ≤5-fold)	≥ 2000
Cc1cc([C@@H](C)Nc2ccccc2C(=O)O)c2cc(-c3ccc4c(c3)c(C)nn4C)n(C)c(=O)c2c1 [Compound 86]	A (A denotes >20-fold)	< 750
Cc1cc(C(C)Nc2ccccc2C(=O)O)c2cc(-c3ccc4c(c3)c(C)nn4C)n(C)c(=O)c2c1 (stereo not drawn) [Compound 87]	A (A denotes >20-fold)	< 750
Cc1cc([C@@H](C)Nc2ccccc2C(=O)O)c2cc(-c3ccnc(C4CC4)c3)ncc2c1 [Compound 89]	A (A denotes >20-fold)	< 750
Cc1cc(C(C)Nc2ccccc2C(=O)O)c2cc(OCc3ccccc3)nc(C(N)=O)c2c1 (stereo not drawn) [Compound 128]	A (A denotes >20-fold)	< 750
Cc1cc(C(C)Nc2ccccc2C(=O)O)c2cc(C3CCCOC3)ncc2c1 (stereo not drawn) [Compound 131]	A (A denotes >20-fold)	< 750
Cc1cc([C@@H](C)Nc2ccccc2C(=O)O)c2cc(OC3CCOCC3)ncc2c1 [Compound 132]	A (A denotes >20-fold)	< 750
Cc1cc(C(C)Nc2ccccc2C(=O)O)c2nc(-c3ccc4c(c3)c(C)cn4C)n(C)c(=O)c2c1 (stereo not drawn) [Compound 133]	A (A denotes >20-fold)	< 750
Cc1cc([C@@H](C)Nc2ccccc2C(=O)O)c2nc(-c3ccc4c(c3)c(C)cn4C)n(C)c(=O)c2c1 [Compound 134]	A (A denotes >20-fold)	< 750
Cc1cc([C@@H](C)Nc2ccccc2C(=O)O)c2nc(-c3ccc(C)nc3)n(C)c(=O)c2c1 [Compound 135]	A (A denotes >20-fold)	< 750
Cc1cc(C(C)Nc2ccccc2C(=O)O)c2nc(-c3ccc(C4CC4)nc3)n(C)c(=O)c2c1 (stereo not drawn) [Compound 136]	A (A denotes >20-fold)	< 750
Cc1cc([C@@H](C)Nc2ccccc2C(=O)O)c2nc(-c3cccnc3)n(C)c(=O)c2c1 [Compound 137]	A (A denotes >20-fold)	< 750
Cc1cc([C@@H](C)Nc2ccccc2C(=O)O)c2nc(-c3ccc(C#N)nc3)n(C)c(=O)c2c1 [Compound 138]	A (A denotes >20-fold)	< 750
Cc1cc(C(C)Nc2ccccc2C(N)=O)c2nc(-c3cccnc3)n(C)c(=O)c2c1 (stereo not drawn) [Compound 139]	B (B denotes 20-fold≥value>5-fold)	750 to 2000
Cc1cc([C@@H](C)Nc2ccccc2C(=O)O)c2nc(-c3cnc(C)c(Cl)c3)n(C)c(=O)c2c1 [Compound 140]	B (B denotes 20-fold≥value>5-fold)	< 750
Cc1cc([C@@H](C)Nc2ccccc2C(N)=O)c2nc(-c3cccnc3)n(C)c(=O)c2c1 [Compound 141]	B (B denotes 20-fold≥value>5-fold)	< 750
Cc1cc([C@@H](C)Nc2ccccc2S(N)(=O)=O)c2nc(-c3cccnc3)n(C)c(=O)c2c1 [Compound 142]	A (A denotes >20-fold)	< 750
Cc1cc([C@@H](C)Nc2ccccc2C(=O)O)c2nc(-c3ccnc(C#N)c3)n(C)c(=O)c2c1 [Compound 143]	A (A denotes >20-fold)	< 750
